Measurements: the COVID Moonshot data (paper PMC7615835)
Several values for one entry are separate records, joined by “and”; a condition that tells them apart may be missing. Equal values may be shown once.

Each molecule was assayed against SARS-CoV-2 Main Protease (SARS-CoV-2) (UniProt P0DTD1).

Compound	IC50
C[C@H](C/C=C/C(C)(C)O)[C@H]1CC[C@@]2(C)[C@@H]3C=C[C@]45OC(O)[C@@]3(CC[C@]12C)[C@@H]4CC[C@H](O[C@@H]1O[C@H](CO)[C@@H](O)[C@H](O)[C@H]1O)C5(C)C (stereo in doubt)	> 99.5 µM
O=C(Cc1cc(Cl)cc(Nc2nc(-c3ccc(Cl)c(Cl)c3)cs2)c1)Nc1cncc2ccccc12	2.46 µM
CC(C)(C)c1ccc(N(C(=O)c2cocn2)C(C(=O)NCCc2cccc(F)c2)c2cncnc2)cc1 (configuration not stated)	2.92 µM
C=CC(=O)N(c1ccc(C(C)(C)C)cc1)C(C(=O)NCc1cccnc1)c1cccnc1 (configuration not stated)	49.9 µM
COc1cccc(CNc2cc(Cl)cc(CC(=O)Nc3cncc4ccccc34)c2)c1OC	2.48 µM
O=C(Cc1cc(Cl)cc(Nc2ccccc2)c1)Nc1cncc2ccccc12	> 9.95 µM
O=C(Nc1ccc(N(C(=O)c2cocn2)C(C(=O)NCCc2cccc(F)c2)c2cccnc2)cc1)NC1CC1 (configuration not stated)	> 99.5 µM
O=C(CCl)N1CCN(S(=O)(=O)c2ccsc2)CC1	1.63 µM
O=C(Cc1cccc(Cl)c1)Nc1nnn[nH]1	45.3 µM
N#CC1(CS(=O)(=O)N2Cc3ccc(Cl)cc3C(C(=O)Nc3cncc4ccc(F)cc34)C2)CC1 (configuration not stated)	0.137 µM
O=C(Cc1cc(Cl)cc(Nc2n[nH]c3ccc(Br)cc23)c1)Nc1cncc2ccccc12	1.83 µM
O=C(Cc1cc(Cl)cc(NCc2ccc(OC(F)(F)F)cc2)c1)Nc1cncc2ccccc12	5.52 µM
COc1ccccc1OCCC(=O)Nc1cncc2ccccc12	93.6 µM and > 99.5 µM
C=CC(=O)N(c1ccc(I)cc1)C(C(=O)Nc1ccc(Cl)cc1)c1cncnc1 (configuration not stated)	26.3 µM
C=CC(=O)N(Cc1ccccc1Cl)C(C(=O)NC(C)(C)C)c1cncc2ccccc12 (configuration not stated)	> 99.5 µM
O=C(c1cncc2ccccc12)N1CCN(c2cccc(Cl)c2)CC1	1.6 µM
Cc1ccncc1NC(=O)Cc1cc(Cl)cc(NC2CCCC2O)c1 (configuration not stated)	19.7 µM
O=C(Cc1cccc(Cl)c1)Nc1ncnc2ccccc12	> 99.5 µM
O=C(Cc1cc(Cl)cc(Nc2n[nH]cc2Br)c1)Nc1cncc2ccccc12	5.04 µM
Cc1nc(C(=O)N(c2ccc(C(C)(C)C)cc2)C(C(=O)NCCc2cccc(F)c2)c2cccnc2)nn1-c1nnc[nH]1 (configuration not stated)	> 99.5 µM
O=C(CC1(C(=O)Nc2cncc3ccccc23)CCOc2ccc(Cl)cc21)N1CCN(C2CCOC2)CC1 (configuration not stated)	6.68 µM
O=C1CC(Oc2cc(Cl)cc(CC(=O)Nn3cnc4ccccc43)c2)N1 (configuration not stated)	82.1 µM
CN(C(=O)c1ccccc1N)c1cc(Cl)cc(CC(=O)Nc2cncc3ccccc23)c1	1.94 µM
O=C(Nc1cncc2ccccc12)C1CN(C2CCNC2=O)C(=O)c2ccc(Cl)cc21 (configuration not stated)	0.717 µM

Compound	IC50
CC(C)(C)c1ccc(N(C(=O)c2nnc(S)[nH]c2=O)C(C(=O)NCCc2cccc(F)c2)c2cccnc2)cc1 (configuration not stated)	> 99.5 µM
Cc1nc(C)c(S(=O)(=O)NCC2CCCC3CC23)s1 (configuration not stated)	> 99.5 µM
C=CC(=O)N(c1ccc(C(C)(C)C)cc1)[C@@H](C(=O)NCCc1cccc(F)c1)c1cccnc1 (stereo in doubt)	86.4 µM
Cc1ccc(-n2ncc3c(=O)n(CC(N)=O)cnc32)cc1C	> 99.5 µM
C[C@H](C(=O)O)C(=O)SCCNC(=O)CCNC(=O)[C@H](O)C(C)(C)COP(=O)(O)OP(=O)(O)OC[C@H]1O[C@@H](n2cnc3c(N)ncnc32)[C@H](O)[C@@H]1OP(=O)(O)O (stereo in doubt)	> 99 µM
Cc1ccc(N(Cc2cscn2)C(=O)Cc2cncc3ccccc23)cc1	8.09 µM
Cc1cc(O)cc(C)c1C[C@H](NC(=O)[C@H](N)CCCNC(=N)N)C(=O)N[C@@H](CCCCN)C(=O)N[C@@H](Cc1ccccc1)C(N)=O (stereo in doubt)	> 99 µM
O=C(Cc1cc(Cl)cc(Nc2cccc(Br)n2)c1)Nc1cncc2ccccc12	1.92 µM
CN(CCO)C1CCN(C(=O)CC2(C(=O)Nc3cncc4ccccc34)CCOc3ccc(Cl)cc32)CC1 (configuration not stated)	37.6 µM
O=C(Cc1cc(Cl)cc(N2CCN(C(=O)OCc3ccccc3)CC2)c1)Nc1cncc2ccccc12	2.23 µM
O=C(Cc1cc(Cl)cc(Nc2c(F)cc(F)cc2[N+](=O)[O-])c1)Nc1cncc2ccccc12	2.04 µM
Cc1cc(C)c(C#N)c(Sc2ncnc3c2nnn3Cc2ccccc2)n1	0.649 µM
Cc1cccc2c(NC(=O)Cc3cccc(Cl)c3)cncc12	> 99.5 µM
NCc1cn(CC(=O)N(Cc2cscn2)c2ccc(-c3ccccc3)nc2)nn1	> 99.5 µM
N#CC1(CS(=O)(=O)N2Cc3ccc(Cl)cc3C3(CCN(c4cncc5cccc(Cl)c45)C3=O)C2)CC1 (configuration not stated)	7.79 µM
COCc1nc(C)c(C(=O)N(c2ccc(C(C)(C)C)cc2)C(C(=O)NCCc2cccc(F)c2)c2cccnc2)s1 (configuration not stated)	> 99.5 µM
Cc1cc(C(F)(F)F)nc2n[nH]c(NC(=O)Cc3cccc(Cl)c3)c12	> 99.5 µM
CCC1(C(=O)Nc2cncc3ccc(S(C)(=O)=O)cc23)CNC(=O)c2ccc(Cl)cc21 (configuration not stated)	1.45 µM
COCC1(C(=O)Nc2cncc3ccccc23)CCOc2cc(Cl)c(Cl)cc21 (configuration not stated)	4.04 µM
O=C(CCl)N1CCCN(S(=O)(=O)Cc2ccccc2)CC1	8.81 µM
CC(CCC(OC1OC(COC2OC(CO)C(O)C(O)C2O)C(O)C(O)C1O)C(C)(C)O)C1CCC2(C)C3CC=C4C(CCC(O)C4(C)C)C3(C)C(O)CC12C (configuration not stated)	> 99.5 µM
CC(C)(C)c1ccc(N(C(=O)c2cocn2)C(C(=O)NCCc2cccc(F)c2)c2cc(=O)[nH]c3ccccc23)cc1 (configuration not stated)	1.16 µM
NC(=O)c1ccc(Cl)c(Nc2cc(Cl)cc(CC(=O)Nc3cncc4ccccc34)c2)c1	1.79 µM
